We go through 21 compounds from US4626283A, “Corrosion and marine growth inhibiting compositions” (Engelhard Corporation, priority 1985, dated 1986).

As usually defined, the mortality is the percentage killed. A high value points to fewer survivors.

Values joined by “and” are separate entries in the source; they are usually repeats but may differ in a detail not shown here. Equal entries are not always repeated. Where two headings read alike, the source gives them in different places.

For data set [1] the following is noted: water.
A short description of data set [2]: Primary skin irritation. It is filed as in vivo. The settings on record: 0.5 g in saline paste; for Skin irritation rating: in words.
A short description of data set [3]: Salt spray test, alkyd formulations (Example VI, FIG. 3). Conditions: alkyd formulation, ASTM B117-73, in words.
Procedure: One coat of paint was applied using a Henry K. Gardner Laboratory draw-down, with either a 6 mil or 8 mil draw-down blade. The draw-down speed was 1 inch per second. Such coat of paint was allowed to cure for two weeks under ambient conditions, in the case of both alkyd and latex paints. The dried coating thickness was measured with Elcometer Coating thickness gauge, Model #150/-FNIE. Acceptable thicknesses of the cured film were 2.5-3.5 mils.
Stormer viscosity (ASTM D562-55) for all alkyd paints was greater than 90, and for all latex paints was greater than 80.
A short description of data set [4]: Draize eye irritation. It is filed as in vivo. The settings on record: 100 mg; for Eye irritation rating: in words.
A short description of data set [5]: Electrochemical testing (Tafel Plot) of corrosion current and corrosion potential.
Data set [6] is described as follows: Acute oral toxicity. Conditions: 5 g/kg in corn oil. It is filed as in vivo.
Data set [7] can be described thus: Salt spray test, alkyd formulations (Example V, FIG. 1).
Data set [8] is classed as physicochemical. The settings on record: simulated rain solution saturated with the pigment; electrolyte pH about 4.2.
The conditions of data set [9]: overall conclusion in words.
Setting [10] is: Tafel Plot, simulated acid rain saturated with pigment, SAE-1020 steel, 5.16 square centimeters.
Setting [11] is: against saturated calomel electrode, simulated acid rain saturated with pigment.

Regarding `NCCN.O=C([O-])CCCC(=O)[O-].[Zn+2]` [Compound 2, Zinc Glutarate Ethylenediamine], in [1], the Solubility entry is recorded as “.16” and the Solubility description result was “SS (key: PINS: practically insoluble (<.1 g/100cc H2 O); SS: slightly soluble (.1 to 1 g/100cc H2 O); MS: moderately soluble)”.

As for `NCCN.O=C([O-])CCCCC(=O)[O-].[Zn+2]` [Compound 3, Zinc Adipate Ethylenediamine], in data set [2], the Skin irritation score was found to be 0.42 and the Skin irritation rating result is “minimally irritating”. Further, the “Salt spray durability, comparison” value in data set [3] is on record as “superior to "Zinc Yellow" (zinc chromate) in salt spray durability”. In data set [4], the Eye irritation score is listed as 19.0 and the Eye irritation rating entry is listed as “moderately-irritating”. Also, the “Corrosion current (Icorr)” value in data set [5] (setting [10]) was 78 microamps. In addition, the mortality in data set [6] (in vivo, 5000 mg/kg) is 0%.

Consider `CC(N)CN.O=C([O-])CCCCC(=O)[O-].[Zn+2]` [Compound 4, Zinc Adipate Propylenediamine], for which, in [3], the “Salt spray durability, comparison” value was “superior to "Zinc Yellow" (zinc chromate) in salt spray durability”.

As to `NCCN.O=C([O-])CCCCCCCC(=O)[O-].[Zn+2]` [Compound 5, Zinc Azelate Ethylenediamine], the “Effect of kaolin on salt spray performance” value in data set [7] (alkyd formulation, combination with kaolin, in words) is listed as “anomolously reduced the performance”. Moreover, in data set [1], the Solubility result is given as “.21” and the Solubility description entry is listed as “SS (key: PINS: practically insoluble (<.1 g/100cc H2 O); SS: slightly soluble (.1 to 1 g/100cc H2 O); MS: moderately soluble)”. For the same compound, the “Corrosion current (Icorr)” value in data set [5] (setting [10]) is reported as 82 microamps. Further, the “Corrosion potential (Ecorr)” value in data set [5] (setting [11]) is listed as -667 millovolts.

Regarding `NCCN.O=C([O-])CCCCCCCCC(=O)[O-].[Zn+2]` [Compound 6, Zinc Sebacate Ethylenediamine], in data set [2], the Skin irritation score stood at 0.13 and the Skin irritation rating entry was “minimally irritating”. For the same compound, in data set [4], the Eye irritation score amounted to 37.2 and the Eye irritation rating result is listed as “severely irritating”. In data set [5], the “Corrosion current (Icorr)” value is 170 microamps and > 100 microamps; the “Corrosion potential (Ecorr)” value is -462 millovolts.

Turning to `O=C([O-])CCCCCCCCCCC(=O)[O-].OCCN(CCO)CCO.[Zn+2]` [Compound 10, Zinc Dibasate Triethanolamine], the “Salt spray durability, comparison” value in data set [3] is given as “superior to "Zinc Yellow" (zinc chromate) in salt spray durability”. Further, in [5], the “Corrosion current (Icorr)” value turned out to be 93 microamps and the “Corrosion potential (Ecorr)” value is given as -580 millovolts.

Take `NCCN.O=C([O-])CCCCCCCCCCC(=O)[O-].[Zn+2]` [Compound 11, Zinc Dodecanedioate Ethylenediamine]: the “Salt spray durability, comparison” value in [3] is given as “superior to "Zinc Yellow" (zinc chromate) in salt spray durability”. In addition, in data set [1], the Solubility entry is “.015” and the Solubility description entry is “PINS (key: PINS: practically insoluble (<.1 g/100cc H2 O); SS: slightly soluble (.1 to 1 g/100cc H2 O); MS: moderately soluble)”. The “Corrosion current (Icorr)” value in [5] (setting [10]) was 130 microamps and > 100 microamps.

Turning to `CCNCC.O=C([O-])CCCCCCCCCCC(=O)[O-].[Zn+2]` [Compound 12, Zinc Dodecanedioate Diethylamine], in data set [5], the “Corrosion current (Icorr)” value was 197 microamps and > 100 microamps.

For the compound `NCCN.O=C([O-])c1ccccc1C(=O)[O-].[Zn+2]` [Compound 17, Zinc Phthalate Ethylenediamine], in data set [2], the Skin irritation score is given as 0.00 and the Skin irritation rating entry is recorded as “non-irritating”. In [1], the Solubility entry was “.02” and the Solubility description entry is “PINS (key: PINS: practically insoluble (<.1 g/100cc H2 O); SS: slightly soluble (.1 to 1 g/100cc H2 O); MS: moderately soluble)”. Moreover, in data set [5], the “Corrosion current (Icorr)” value is 83 microamps.

Take `NCCN.O=C([O-])c1cccc(C(=O)[O-])c1.[Zn+2]` [Compound 18, Zinc Isophthalate Ethylenediamine]: the “Salt spray durability, comparison” value in [3] is recorded as “superior to "Zinc Yellow" (zinc chromate) in salt spray durability”. In [1], this compound displayed a Solubility of 1.13.

As for `NCCN.O=C([O-])c1ccc(C(=O)[O-])cc1.[Zn+2]` [Compound 19, Zinc Terephthalate Ethylenediamine], in data set [1], the Solubility entry was “.66” and the Solubility description entry is reported as “SS (key: PINS: practically insoluble (<.1 g/100cc H2 O); SS: slightly soluble (.1 to 1 g/100cc H2 O); MS: moderately soluble)”.

Regarding Zinc Dibasate Diethylamine [Compound 9], in data set [4], the Eye irritation score is recorded as 5.5 and the Eye irritation rating result is “mildly irritating”. Further, in data set [5], the “Corrosion current (Icorr)” value is on record as 30 microamps; the “Corrosion current (Icorr), second test” value is 177 microamps and > 100 microamps; the “Corrosion potential (Ecorr)” value was -570 millovolts. Moreover, in data set [6], the “Oral acute toxicity, mortality” value turned out to be 0%.

As for “Zinc Dibasate Dimethylamine [Compound 21]”, in data set [5], the “Corrosion current (Icorr)” value was 82 microamps and the “Corrosion potential (Ecorr)” value was -610 millovolts.

As to Zinc Dibasate Piperidine [Compound 24], in data set [5], the “Corrosion current (Icorr)” value is given as 40 microamps and the “Corrosion potential (Ecorr)” value is recorded as -610 millovolts.

Take “Zinc Dibasate Propylenediamine [Compound 8]”: in [1], the Solubility entry is reported as “.16” and the Solubility description entry is “SS (key: PINS: practically insoluble (<.1 g/100cc H2 O); SS: slightly soluble (.1 to 1 g/100cc H2 O); MS: moderately soluble)”.

In [8], Zinc Dibasate Pyridine [Compound 23] came in with a pH of 7.0. In data set [5] (setting [10]), the “Corrosion current (Icorr)” value is 60 microamps. In addition, the “Corrosion potential (Ecorr)” value in [5] (setting [11]) is listed as -550 millovolts.

In data set [8], “Zinc Dibasate-1,2-Diaminopropane [8^(3)]” registered a pH of 7.55. Also, the “Corrosion current (Icorr)” value in [5] (setting [10]) is recorded as 90 microamps. The “Corrosion potential (Ecorr)” value in data set [5] (setting [11]) is given as -570 millovolts.

As to “Zinc Quinizarinate Ethylenediamine [Compound 22]”, the “Corrosion current (Icorr)” value in data set [5] (setting [10]) is 84 microamps. Moreover, the “Corrosion potential (Ecorr)” value in [5] (setting [11]) is listed as -570 millovolts.

“Zinc Sulfonyldiphenolate Ethylenediamine [Compound 15]”: in data set [2], the Skin irritation score came to 0.08 and the Skin irritation rating entry was “non-irritating”. Moreover, in [4], the Eye irritation score was 31.0 and the Eye irritation rating result is “severely irritating”. For the same compound, in [5], the “Corrosion current (Icorr)” value was 170 microamps and > 100 microamps; the “Corrosion potential (Ecorr)” value is on record as -592 millovolts.

On to “Zinc Thiodiphenolate Ethylenediamine [Compound 14]”, for which the Toxicity characteristics result in data set [9] is “unacceptable toxicity characteristics”. In addition, in [7], the “Effect of kaolin on salt spray performance” value is “enhanced the performance”. In addition, in data set [4], the Eye irritation score is reported as 53.7 and the Eye irritation rating entry is “extremely irritating”. Also, in data set [5], the “Corrosion current (Icorr)” value is on record as 52.5 microamps and the “Corrosion potential (Ecorr)” value is reported as -570 millovolts.

On to “Zinc Thiodiphenolate Propylenediamine [Compound 20]”, for which, in data set [5], the “Corrosion current (Icorr)” value is reported as 46 microamps and the “Corrosion potential (Ecorr)” value is on record as -560 millovolts.
